According to US9144239B2, “Macrocyclic picolinamides as fungicides” (DOW AGROSCIENCES LLC, priority 2012, dated 2015):

Each compound was assayed on Rhyncosporium secalis (assay: Fungicidal activity: barley scald (RHYNSE)). Conditions: 100 ppm, 1 Day Protectant.
Assay type: in vivo
Protocol: Technical grades of materials were dissolved in acetone, which were then mixed with nine volumes of water containing 110 ppm Triton X-100. The fungicide solutions were applied onto wheat seedlings using an automated booth sprayer to run-off. All sprayed plants were allowed to air dry prior to further handling. Wheat plants (variety Yuma) were grown from seed in a greenhouse in 50% mineral soil/50% soil-less Metro mix until the first leaf was fully emerged, with 7-10 seedlings per pot. These plants were inoculated with an aqueous spore suspension of Septoria tritici either prior to or after fungicide treatments. After inoculation the plants were kept in 100% relative humidity (one day in a dark dew chamber followed by two to three days in a lighted dew chamber at 20° C.) to permit spores to germinate and infect the leaf. The plants were then transferred to a greenhouse set at 20° C. for disease to develop. When disease symptoms were fully expressed on the 1st leaves of untreated plants, infection levels were assessed on a scale of 0 to 100 percent disease severity. Percent disease control was calculated using the ratio of disease severity on treated plants relative to untreated plants. Evaluation of Fungicidal Activity: Barley Scald (Rhyncosporium secalis; Bayer Code […]) Barley seedlings (variety Harrington) were propagated in soil-less Metro mix, with each pot having 8 to 12 plants, and used in the test when first leaf was fully emerged. Test plants were inoculated by an aqueous spore suspension of Rhyncosporium secalis 24 hr after fungicide treatments. After inoculation the plants were kept in a dew room at 20° C. with 100% relative humidity for 48 hr. The plants were then transferred to a greenhouse set at 20° C. for disease to develop. Fungicide formulation, application and disease assessment on the sprayed leaves followed the procedures as described in the Example A.

SMILES | Disease Control RHYNSE 1 DP
COc1ccnc(C(=O)N[C@H]2COC[C@H](Oc3ccccc3)[C@@H](Oc3ccccc3)[C@H](C)OC2=O)c1OCOC(C)=O [Compound 84] | A (80-100)
CCCO[C@H]1COC[C@H](NC(=O)c2nccc(OC)c2OCOC(C)=O)C(=O)O[C@@H](C)[C@@H]1Oc1ccccc1 [Compound 221] | A (80-100)
CCCO[C@H]1[C@H](C)OC(=O)[C@@H](NC(=O)c2nccc(OC)c2OCOC(C)=O)COC[C@@H]1Oc1ccccc1 [Compound 222] | A (80-100)
COc1ccnc(C(=O)N[C@H]2COC[C@H](Oc3ccc(F)cc3)[C@@H](Oc3ccc(F)cc3)[C@H](C)OC2=O)c1OC(C)=O [Compound 229, 2-(((3S,7S,8S,9S)-7,8-bis(4-fluorophenoxy)-9-methyl-2-oxo-1,5-dioxonan-3-yl)carbamoyl)-4-methoxypyridin-3-yl acetate] | A (80-100)
COc1ccnc(C(=O)N[C@H]2COC[C@H](Oc3ccc(F)cc3)[C@@H](Oc3ccc(F)cc3)[C@H](C)OC2=O)c1OCOC(C)=O [Compound 231] | A (80-100)
